Source: patent US7700647B2, “Fluorinated bis (phthalic anhydride) and method for producing the same” (priority 2003, dated 2010)

Experiments:
Assay type in all cases: physicochemical
[1] = Absorbance of acetone solution measured with a spectrophotometer (coloration); settings: wavelength 360 nm; 0.5 g dissolved in acetone to 10 g total
Description: 0.5 g of 4,4′-[(2,3,5,6-tetrafluoro-1,4-phenylene)-bis(oxy)]bis(3,5,6-trifluorophthalic anhydride) obtained in the above-mentioned Preparation Example 4 was dissolved in acetone and adjusted so as to give 10 g of the total amount of the mixture. The absorbance in the visible region of this solution was measured with a spectrophotometer (UV-3100 manufactured by Shimadzu Corporation). The absorbance of the same compound prepared in the above-mentioned Comparative Preparation Example 2 was similarly measured.

[2] = Specific surface area by Brunauer-Emmerit-Teller (BET) method; settings: Model NOVA 2000
Description: Each specific surface area of 4,4′-[(2,3,5,6-tetrafluoro-1,4-phenylene)bis(oxy)]bis(3,5,6-trifluorophthalic anhydride) obtained in the above-mentioned Preparation Example 4 and Comparative Preparation Example 2 was measured.
The specific surface area was measured using a Brunauer-Emmerit-Teller (BET) method (Model NOVA 2000 manufactured by Quantachrome Corporation).

[3] = Time to become a homogeneous solution when stirred with diamine in N,N-dimethylacetamide; settings: stirred at room temperature
Description: Into a 100 milliliter—three necked flask were charged 14.51 g (24.92 mmol) of 4,4′-[(2,3,5,6-tetrafluoro-1,4-phenylene)bis(oxy)]bis(3,5,6-trifluorophthalic anhydride) obtained in Preparation Example 4, 4.48 g (24.92 mmol) of 1,3-diamino-2,4,5,6-tetrafluorobenzene and 31 g of N,N-dimethylacetamide. As this mixture was stirred at room temperature in an atmosphere of nitrogen, it took about 30 minutes before it became a homogeneous solution. By leaving standing further for 4 days, a light-yellow polyamic acid solution having a high viscosity was obtained.
Raw materials were charged into a three necked flask in the same manner as that of the above-mentioned Preparation Example 5 except for using a substance obtained in the above Comparative Preparation Example 2 instead of a substance obtained in the above Preparation Example 4 as the 4,4′-[(2,3,5,6-tetrafluoro-1,4-phenylene)bis(oxy)]bis(3,5,6-trifluorophthalic anhydride). As this mixture was stirred at room temperature as with the above-mentioned Preparation Example 5, it took about 1 hour before it became a homogeneous solution. By leaving standing further for 4 days, a yellow polyamic acid solution was obtained, but its viscosity was low. When its weight-average molecular weight was measured in the same manner as that of the above-mentioned Preparation Example 5, it was 6.04×10^4.

SMILES | Molar absorption coefficient [1] [L/mol/cm] | Specific surface area [2] [m^2/g] | Time before mixture became a homogeneous solution ([3]; 14.51 g with 4.48 g 1,3-diamino-2,4,5,6-tetrafluorobenzene in 31 g N,N-dimethylacetamide, nitrogen) | Time before mixture became a homogeneous solution ([3]; same manner as Preparation Example 5, N,N-dimethylacetamide)
O=C1OC(=O)c2c(F)c(Oc3c(F)c(F)c(Oc4c(F)c(F)c5c(c4F)C(=O)OC5=O)c(F)c3F)c(F)c(F)c21 [Preparation Example 4, 4,4′-[(2,3,5,6-tetrafluoro-1,4-phenylene)bis(oxy)]bis(3,5,6-trifluorophthalic anhydride)] | 0.258 | 4.403 | about 30 minutes | 
O=C1OC(=O)c2c(F)c(Oc3c(F)c(F)c(Oc4c(F)c(F)c5c(c4F)C(=O)OC5=O)c(F)c3F)c(F)c(F)c21 [Comparative Preparation Example 2, 4,4′-[(2,3,5,6-tetrafluoro-1,4-phenylene)bis(oxy)]bis(3,5,6-trifluorophthalic anhydride)] | 0.672 | 2.869 |  | about 1 hour
